From US20160030499A1, “Adaptogenic Compositions And Method For Production Thereof” (Rubikon Ltd., priority 2014, published 2016)

Test: Storage stability of quantitated schisandrin (HPLC)
Assay type: physicochemical
Text: A high performance liquid chromatography (HPLC) method was developed to quantitate the schisandrin compound contained in the Schisandra chinensis extract. Schisandrin (≧98%) obtained from Sigma-Aldrich was used as a control. The content of the schisandrin compound in the Schisandra chinensis seed oil extracts ranged from about 4.2 to 4.9% depending on the extraction for example, prior to standardization.
A High-performance liquid chromatography method has been developed to quantify the schisandrin in the extract:
Chromatographic Conditions: • Column: Agilent Zorbax Eclipse XDB-C 18, 150 mm length and 4.6 mm internal diameter filled with octadecylsilyl silica gel, 5 micron particle size; • Flow rate: 1 ml/min; • Detection at wavelength: 250 nm; • Volume of injection sample: 10 μl; • Column temperature: 25° C.

COc1cc2c(c(OC)c1OC)-c1c(cc(OC)c(OC)c1OC)C[C@](C)(O)[C@@H](C)C2 [schisandrin compound, schisandrin]
Storage stability of quantitated amount of schisandrin (12 months, 30 degrees Celsius and 65% relative humidity): stable and unchanged
Storage stability of quantitated amount of schisandrin (24 months, 25 degrees Celsius and 60% relative humidity): stable and unchanged
Storage stability in other studies using the formulation tested in Example 1 (conditions not stated): stable for at least or about one year
Storage stability of quantitated amount of schisandrin (six months, 40 degrees Celsius and 75% relative humidity): stable and unchanged
